Experimental data reported in patent US8859502B2, “Therapy for MLL-rearranged leukemia” (Celgene Corporation, priority 2010, dated 2014).

Tests used:
[1] = tested on: t(4;11)-positive ALL cells; assay type: cell-based, human; conditions: for therapeutic index and specificity towards t(4;11)-positive ALL cells: SEM, RS4;11, MLL-AF4 patient cells versus normal bone marrows, FIG. 6
Text: VPA, D. romidepsin, E. MS-275. Error bars represent standard errors of the mean (SEM).

SEM cell line = test: Proto-oncogene mRNA expression by quantitative real-time PCR after exposure to HDAC inhibitors, SEM; assay type: cell-based, human
Experimental: (§1) FIGS. 8A, 8B, 8C, 8D, 8E, 8F and 8G show relative proto-oncogene mRNA expression after exposure to HDAC inhibitors in SEM cell line. FIGS. 8AA, 8BB, 8CC, 8DD, 8EE, 8FF and 8GG show relative proto-oncogene mRNA expression after exposure to HDAC inhibitors in RS4;11 cell line. mRNA expression levels of the proto-oncogenes A. RAN, B. SET, C. […] For RUNX1, PARK7, DIAPH1 and HOXA9 data after 24 hours exposure are presented as well (hatch fill). Expression levels in SEM or RS4;11 were set to 100%.
(§2) Total RNA was reverse transcribed and the obtained cDNA was used to quantify mRNA expression by using quantitative real-time PCR analysis as described in Stam et al., Haematologica 92(11):1565-1568, 2007). […] Per experiment, samples were analyzed in duplicate and all experiments were conducted twice. […]
(§3) To explore the mechanism of action of HDAC inhibitors on induced leukemic cell death in MLL-rearranged ALL, the t(4;11)-positive ALL cell lines SEM and RS4;11 were exposed to various concentrations of TSA, SAHA, VPA, MS-275 and romidepsin for 6, 24 or 48 hours. During these exposures, cell viability was monitored by trypan blue exclusion (FIG. 7). Quantitative real-time PCR was used to determine the mRNA expression levels of MYC, SET, RUNXI, RAN, HOXA9, DIAPHI and PARK7 in the cell lines SEM and RS4;11 during exposure to the different HDAC inhibitors. […]

RS4;11 cell line = test: Proto-oncogene mRNA expression by quantitative real-time PCR after exposure to HDAC inhibitors, RS4;11; assay type: cell-based, human; conditions: RS4;11, mRNA by quantitative real-time PCR
Experimental: as §1, §2, §3

[2] = tested on: healthy hematopoietic bone marrow cells

| Compound | therapeutic index and specificity towards t(4;11)-positive ALL cells [1] | in vitro cytotoxicity on the leukemic cell population [1] | expression of the selected proto-oncogenes (SEM cell line) | expression of the selected proto-oncogenes (RS4;11 cell line) | effect on healthy hematopoietic bone marrow cells [2] |
| --- | --- | --- | --- | --- | --- |
| Nc1ccccc1NC(=O)c1ccc(CNC(=O)OCc2cccnc2)cc1 [MS-275] | high therapeutic index and a preferred specificity towards targeting t(4;11)-positive ALL cells |  |  |  |  |
| CC(/C=C/C(=O)NO)=C\[C@@H](C)C(=O)c1ccc(N(C)C)cc1 [trichostatin A] | high therapeutic index and a preferred specificity towards targeting t(4;11)-positive ALL cells | consistent eradication of the entire leukemic cell population | consistently repressed most of the selected proto-oncogenes | consistently repressed most of the selected proto-oncogenes | harmless for healthy hematopoietic bone marrow cells |
| C/C=C1\NC(=O)[C@H]2CSSCC/C=C/[C@H](CC(=O)N[C@H](C(C)C)C(=O)N2)OC(=O)[C@H](C(C)C)NC1=O [romidepsin, (1S,4S,7Z,10S,16E,21R)-7-ethylidene-4,21-bis(1-methylethyl)-2-oxa-12,13-dithia-5,8,20,23-tetrazabicyclo[8.7.6]tricos-16-ene-3,6,9,19,22-pentone] | high therapeutic index and a preferred specificity towards targeting t(4;11)-positive ALL cells |  |  |  |  |
| O=C(CCCCCCC(=O)Nc1ccccc1)NO [Vorinostat] |  |  | consistently repressed most of the selected proto-oncogenes | consistently repressed most of the selected proto-oncogenes |  |
